Test results as given in patent US20070155827A1, “USE OF BENZO-FUSED HETEROCYCLE SULFAMIDE DERIVATIVES FOR THE TREATMENT OF DEPRESSION” (priority 2005, published 2007).
Read-outs that look alike come from different tables or passages of the source.

Legend:
CH3/HeJ mice = assay: Mouse Tail Suspension Assay (Acute), TST; format: in vivo; conditions: Mus musculus, po, 7 min, p.o., 7-min session
Procedure: In the tail suspension test (TST) for evaluating compounds for anti-depressant activity, mice are suspended by their tails to a metal or plastic rod using clip or scotch tape. The test is usually quite short, 5-7 min, and the amount of time the mice spend immobile is recorded either manually or with an automated device. Agents which have antidepressant activity, decrease the duration of immobility of mice in this test.
The basic apparatus for the tail suspension assay consisted of a yellow plastic chamber (91×45×10 cm) divided for four arenas 25, 20, 20 and 25 cm wide separated by yellow plastic walls 0.75 cm thick. Mice were suspended by their tails using a rubber clip (7 cm long) attached to the plastic rod that was placed on the top of a testing chamber half way through its deep dimension. Each experimental session was videotaped and analyzed for four animals in the real time by computer software (“Depression Scan” Clever Sys Inc.). The computer justification of immobility was calibrated with the use of animals dosed with lorazepam while justification of movement was calibrated with the high dose of desipramine treated animals. Control, vehicle treated animals and animals treated with Compound #8 were analyzed under the calibrated settings. The settings were adjusted separately for dark (CH3/HeJ and C57Bl/6J strains) and white mice (Balb/cJ and A/J strains). A yellow background was used for dark mice and a blue background was used to record movements of white mice.
The ability of a test compound to decrease the duration of immobility, or increase mobility was measured using the TST procedure described above. Acute treatment with clinically effective antidepressants and/or novel compounds that have potential antidepressant properties decrease the duration of immobility and at the same time increases mobility in the TST.
Data were analyzed using GraphPad Prism software (GraphPad Software, Inc. San Diego, Calif.). For the comparison of the effect of different doses for various drugs on immobility in the TST one-way analyses of variance (ANOVA) were used followed by Dunnett's multiple comparison test. […] The ED50 and Emax values were compared using two-way ANOVA and Bonferroni post-hoc test.
Positive controls included duloxetine (DLX), venlafaxine (VLX)and desipramine (DMI) which were dissolved in 0.5% methylcellulose and lorazepam (LOR) which was suspended in 0.5% of methylcellulose in water by sonication. All drugs and vehicles were administered orally (p.o.) by gavage in a volume of 10 mL/kg.
The mice were ordered 5 weeks old and at the beginning of experiment their weight was 20±5 g. Animals were housed in groups of four in plastic cages at an ambient temperature of 21° C. to 23° C. with an automated 12/12 hours light/dark cycle and access to water and a commercial rodent food ad libitum.
Each experiment consisted of seven treatment groups with four animals per group. A total of 28 animals per experiment were used. Every two consecutive experiments (1 & 2, 3 & 4, 5 & 6 and 7 & 8) were exact replicas of each other. […] One treatment group of four animals in each experiment was a vehicle treated group. In addition to the vehicle treated group, the effects of DMI at 6 mg/kg, 12 mg/kg, 30 mg/kg, 60 mg/kg and 120 mg/kg and LOR at 5 mg/kg were tested in experiments 1 and 2. […] In experiments 5 and 6 the effects of DLX at 6 mg/kg, 12 mg/kg, 30 mg/kg, 60 mg/kg, 120 mg/kg and LOR at 5 mg/kg were tested. […]

Male Sprague Dawley rats = assay: Forced Swim Test (Acute), FST; format: in vivo
Procedure: The Forced Swim test (FST) is a commonly used procedure to screen compounds for possible antidepressant properties. This test is also known as the behavioral despair test. Rodents placed in […] tanks filled with water present a wide variety of escape or immobility behaviors. Antidepressant drugs from different classes markedly increase escape behaviors and/or decrease latency or duration of immobility.
Venlafaxine and desipramine were dissolved in water. All drugs and their vehicles were administered orally (p.o.) by gavage in a volume of 5 mL/kg.
Male Sprague Dawley rats (140 to 160 g) from Charles River Laboratories Wilmington, Mass. were used. The animals went through a five-day quarantine period before being subjected to the experimental procedure.
Animals were housed in groups of four in plastic cages at an ambient temperature of 21° C. to 23° C. with an automated 12 hour light/dark cycle and access to water and commercial rodent food ad libitum. Animals were not handled more than for the routine bedding change prior to pre-test swim session.
Each experiment consisted of seven treatment groups with n=4 animals per group. A total of 28 animals per experiment were used. Two consecutive experiments (1 and 2, 3 and 4, and 5 and 6) were exact replicas of each other. […] One treatment group of n=4 animals in each experiment was a vehicle treated group. […] In experiments 5 and 6 the effects of venlafaxine and maprotyline at 12 mg/kg, 30 mg/kg, and 60 mg/kg were tested.
The basic apparatus consisted of a cylinder (46 cm tall×˜20 cm diameter) filled with water to 30 cm deep, at a temperature of 25±1° C. The automated version of the FST was used to perform the experiments. Plumbing for automatic filling and emptying water connected the four cylinders. Cylinders were placed in the dividing chambers 25 cm wide to separate animals visually. Each 5-minute experimental session was videotaped and analyzed in real time by computer software (Clever Systems, Inc.) for four animals at a time. The immobility, swimming, climbing and escape times were recorded by the software. The four activities are defined as follow. Immobility: the animal floats motionlessly or makes only those movements necessary to keep its head above water; Climb: the animal vigorously moves vertically while scratching the wall around the cylinder; Swim: the animal moves horizontally around in the cylinder more than necessary to keep its head above water; and Escape: sum of all vigorous active movements.
The ability of a test compound to decrease the duration or frequency of immobility, or changes in swimming, climbing and escape times, was measured using the FST procedure described above. […] The analysis of the results in the studies described was focused on the immobility time during 5-minute test session.
There were two swim sessions in each experiment. First, a pre-test swim session for 15 minutes was performed. Following 48 hours later was a test session of 5-minute duration. Upon completion of a swim session, each animal was placed under a heat lamp in a cage with soft bedding for approximately 15 minutes to prevent hypothermia.
Animals were pre-treated with a vehicle or test compound after completing the pre-test swim session, then 24 hours later and then shortly prior to the 5-minute test session; i.e., three injections were given to each animal between the two swim sessions that occurred on 3 consecutive days.
Data were analyzed using GraphPad Prism software (GraphPad Software, Inc. San Diego, Calif.). For the comparison of the effect of different doses for various drugs on immobility in the FST one-way ANOVA was used followed by Dunnett's multiple comparison test. […] The ED50 and Emax values were statistically compared using two-tail t-test.

Male Wistar rats = assay: Chronic Mild Stress Model (Chronic), sucrose consumption; format: in vivo; conditions: stressed animals, once daily i.p.
Description: In the chronic mild stress (CMS) model rats subjected to a variety of mild stressors for a prolonged period of time show, among other behavioural, biochemical and physiological impairments, a substantial decrease in their responsiveness to rewarding stimuli. This deficit is usually monitored by a decrease in the consumption of the 1% sucrose solution, but can also be seen in other tests, such as place preference conditioning or intracranial self-stimulation. Since the subsensitivity to reward appears to reflect anhedonia (inability to experience pleasure), which is a core symptom of major depressive disorders, the CMS procedure may serve as a suitable research tool in studies into the mechanisms of antidepressant action.
Male Wistar rats were brought into the laboratory two months before the start of the experiment. Except as described below, the animals were singly housed with food and water freely available, and were maintained on a 12-h light/dark and in a constant temperature (22±2° C.) and humidity (50±5%) conditions.
The animals were first trained to consume a 1% sucrose solution; training consisted of eight 1 h baseline tests in which sucrose was presented, in the home cage, following 14 h food and water deprivation; the sucrose intake was measured by weighing pre-weighed bottles containing the sucrose solution, at the end of the test. Subsequently, sucrose consumption was monitored, under similar conditions, at weekly intervals throughout the whole experiment.
On the basis of their sucrose intakes in the final baseline test, the animals were divided into two matched groups. One group of animals was subjected to the chronic mild stress procedure for a period of 7 consecutive weeks. Each week of stress regime consisted of: two periods of food or water deprivation, two periods of 45 degree cage tilt, two periods of intermittent illumination (lights on and off every 2 h), two periods of soiled cage (250 ml water in sawdust bedding), one period of paired housing, two periods of low intensity stroboscopic illumination (150 flashes/min), and three periods of no stress. All stressors were 10-14 h of duration and were applied individually and continuously, day and night. Control animals were housed in separate rooms and had no contact with the stressed animals. They were deprived of food and water for the 14 h preceding each sucrose test, but otherwise food and water were freely available in the home cage.
The drugs were administered at approx. 10.00 and the weekly sucrose tests were carried out 24 h following the last drug injections. […]
All results obtained in this study were analyzed by multiple analyses of variance with three between-subjects factors (stress/control, drug treatments and successive sucrose tests). […]

[1] = system: stressed and non-stressed animals; assay: Resident/Intruder Assay (Chronic Social Stress Assay); format: in vivo; conditions: Forced Swim Test, 10 mg/kg p.o.
Description: The behavioral resident/intruder assay is used to screen compounds for anti-depressant-like activity.

submissive rats = assay: Dominant-Submissive Relations (DSR) assay: Reduction of Submissive Behavior Model (RSBM) of depression; format: in vivo, Male Sprague Dawley rats; conditions: 10.0 mg/kg i.p.
Procedure: The DSR assay is divided into two models: Reduction of Dominant Behavior Model (RDBM) of mania and Reduction of Submissive Behavior Model (RSBM) of depression. The RDBM, wherein the dominant animals are treated with test compound, is predictive of the ability of the test compound to treat mania. The RSBM, wherein the submissive animals are treated with test compound, is predictive of the ability of the test compound to treat depression.
Male Sprague Dawley rats (140 to 160 g) from Charles River Laboratories Wilmington, Mass. were used in this assay. Shipments of rats were received at two-week intervals. Each shipment went through five-day quarantine, one-week acclimation period, and one-week selection process, followed by five-weeks of drug or vehicle treatment to those pairs selected.
Rats were housed four per cage. Access to food was restricted to one hour per day after testing on Monday through Thursday. After testing on Friday, rats had free access to food until being fasted again on Sunday. At no time were the rats deprived of water. The food deprivation periods used had little effect on weight gain as the average weight of rats was about 300 g at the end of the study. At the conclusion of experiment rats were sacrificed by decapitation, the trunk blood and brains were collected for in vitro experiments and drug concentration measurements.
The basic testing apparatus consisted of two chambers connected with a tunnel only large enough to allow one rat to pass through at a time. On the floor, at the mid-point of the tunnel was a container of sweetened milk. This basic apparatus was replicated, so that a total of four pairs of rats can be video tracked simultaneously. The camera can distinguish rats marked by different colors. Thus, the rats' heads were colored for the purpose of video tracking, red in one cage and yellow in the other cage. Only one animal at a time can have comfortable access to the feeder, but both animals can drink milk during the five-minute daily session. During the five-minute daily sessions, time spent in the feeder zone by each rat was recorded by the video tracking software and saved into a text file.
The test began with a random assignment of rats into pairs. Each member of a pair was placed in an opposite chamber of the testing apparatus. The time spent in the feeder zone by each animal was recorded. During the first week (five days) of testing the animals habituate to the new environment. Dominance was assigned to the animal with the highest score during the second week of testing if three criteria were achieved. First, there must have been a significant difference (two-tailed t-test, P<0.05) between the average daily drinking scores of both animals. Second, the dominant animal score must have been at least 25% greater than the submissive animal's score. Finally, there must have been no “reversals” during the pair selection week where the putative submissive rat out-scored its dominant partner on isolated occasions. Ideally there were minimal reversals during the acclimation week as well. About twenty-five to thirty-three percent of the initial animal pairs achieved these criteria and only these pairs were continued in the study.
Significant differences between time spent on the feeder by dominant and submissive rats were determined by ANOVA using GraphPad Prism software (GraphPad Software, Inc. San Diego, Calif.) followed by a two-tailed t-test (P<0.05). Comparisons were made between treatment groups using normalized dominance level values in paired animals. The dominance level is a value that measures social relation between paired subjects. Dominance level (DL)=FTD−FTS where FTD is the feeder time of dominant rats and FTS is the feeder time of submissive rats. The normalization was conducted according to the formula: Dominance Level (week n in %)=(Dominance Level (week n))/(Dominance Level (week 2) […]

CNCCCN1c2ccccc2CCc2ccccc21 [DMI, desipramine, reference compound]
ED50 (CH3/HeJ mice; read-out: Immobility ED50): 27.4 mg/kg | ED50 (CH3/HeJ mice; read-out: Mobility ED50): 24.4 mg/kg | ED50 (Male Sprague Dawley rats; Rattus norvegicus, po, 5 min, p.o., three administrations, 5-minute test session, read-out: ED50 (immobility)): 2 ± 0.1 mg/kg | Emax (immobility) (Male Sprague Dawley rats; p.o., immobility): 50.0 ± 8.4 s

CN(C)CCCN1c2ccccc2CCc2ccccc21 [Imipramine, imipramine, reference compound]
treatment time until increase in sucrose intake reached statistical significance vs Week 0 (Male Wistar rats): four weeks

O=C1Nc2ccc(Cl)cc2C(c2ccccc2Cl)=NC1O (stereo not shown) [Lorazepam, lorazepam, reference compound]
effect on immobility time (Male Sprague Dawley rats; 1 mg/kg p.o., negative control): no significant effect

COc1ccc(C(CN(C)C)C2(O)CCCCC2)cc1 (stereo not shown) [Venlafaxine, venlafaxine]
treatment time until increase in sucrose intake reached statistical significance vs Week 0 (Male Wistar rats): four weeks | Immobility during 5 min: Week 5 Mean ± SD ([1]; non-stressed): 181.8 ± 27.6 | Immobility during 5 min: Week 5 Mean ± SD ([1]; stressed): 190.4 ± 36.8

CNCCC(Oc1ccc(C(F)(F)F)cc1)c1ccccc1 (stereo not shown) [fluoxetine, reference compound]
loss of significant difference between dominant and submissive rats (submissive rats): lost after third week of treatment
